From US20240287054A1, “COMPOUNDS THAT BIND NON-CANONICAL G-QUADRUPLEX STRUCTURES AND METHODS OF MAKING AND USING THE SAME” (The U.S.A., as Represented by the Secretary, Department of …, priority 2021, published 2024)
Where two headings read alike, the source gives them in different places. Each block holds one compound with its values, some of them ahead of it.

Legend:
[1] = system: 12 different G4 oligos as well as non-G4 oligos (dsDNA and ssDNA); test: Small-scale DNA G4 microarray binding selectivity; conditions: fluorescent compound incubated 1 h; B33 at 2.5 μM
Experimental: In this example, a small-scale DNA G4 microarray containing 12 different G4 oligos as well as non-G4 oligos (dsDNA and ssDNA) was fabricated and tested (Table 4). To start with, a SA-coated glass surface was prepared. An amino-functionalized glass slide was firstly modified with a solution of N, N′-disuccinimidyl carbonate (DSC, 1.0 M) and N, N-diisopropylethylamine (DIPEA, 1.0 M) in DMF overnight at room temperature. After being washed successively with EtOH, Milli-Q water (5 min each) and dried with N2 gas, the slide was incubated with 1 mg/mL of SA solution for 12 h (overnight) in a 4° C. fridge, followed by blocking the surface with EA buffer for 30 minutes. Then, the slide was rinsed with PBS buffer and Milli-Q water, and dried b centrifugation (1,700 g, 2 min).
In parallel, biotin-labeled DNA/RNA oligos were prepared in annealing buffer resulting in 5 μM stock solutions, followed by annealing (according to above methods). Then all the oligo solutions were transferred into a 384-well plate. Next, the microarray printing was conducted by a robotic arrayer (Nanoprint, Arrayit, USA) with a humidity of 60%. After the microarray was fabricated, the slide was placed in a slide box with a piece of wet Kimwipe tissue and incubated at 4° C. for 2 h.
To incubate with the fluorescent compounds (compound B33, thiazole orange (“TO”), and amsacrine), the slide was thoroughly rinsed with PBST, PBS, and water to remove the unbounded oligos. Then, the slide was dried by centrifugation (1,700 g, 2 min) and quickly assembled with microarray gaskets (Agilent, USA), followed by loading the compound solutions. After 1 h incubation, the slide was washed and dried with the above-mentioned method. Finally, the microarray slide was imaged by a fluorescence scanner (Mapix) using green channel and the fluorescence intensities were quantified.

[2] = system: ~19,000 different G4 sequences, G4 and non-G4 controls; test: High-density DNA oligo microarray (~19,000 G4 sequences) selectivity profiling; format: binding; conditions: 500 nM compound
Description: To further characterize the binding selectivity of compound B33, high-density and large-scale DNA microarrays that contained ˜19,000 different G4 sequences were fabricated and used. In this microarray, 340 reported G4s (G-rich sequences) as well as 280 non-G4s (C-rich sequences) were designed as positive and negative controls. Additionally, over 17,000 canonical G4 oligos with short loops (1˜7 nt) were also designed and synthesized by varying the loop sequences to meet the diversity of G4 structure. After folding the surface-grafted DNA oligos in high concentration of KCl buffer, TO and compound B33 solutions (500 nM) were incubated with the microarray, respectively. Then the slides were thoroughly washed, dried, and imaged by a fluorescent scanner using green channel. […] By quantifying the fluorescence intensity of each spot, the bindings of TO and compound B33 were further investigated. The kernel density estimate (KDE) plot and violin plot represented the distribution of the binding signals throughout the whole microarray. […] Compound B33 spectrum spanned a much wider range than that of TO. In the violin plot (FIG. 37C), the mean SNR value of TO group was 12, much higher than that of the compound B33 group. […] Furthermore, the selectivity of the two compounds were quantitatively profiled by using Gini coefficient. Gini coefficient, initially used as an economic concept, has been applied in profiling the selectivity/promiscuity of kinase inhibitors as well as RNA binders. A higher Gini value represents a better selectivity of a compound (Gini coefficient>0.75 is considered an excellent selectivity). The Gini coefficient based on the SNRs in the microarray.

[3] = Solubility / aggregation observations in binding buffers; format: physicochemical; conditions: assay buffers, SPR sensorgrams
Experimental: A systematic binding assay between 14 analogs and MYCN G4 was performed by SPR and 2-AP (A11) fluorescence titration (FIGS. 26A-26N, 27A-27N). […] For 2-AP fluorescence titration assay (using an A11-substituted construct) observed KD values aligned well with SPR experiments, although the values were slightly lower overall. […] Taking all the SAR data into consideration, MY-8 was elected for cell-based assays.

MYCN G4 DNA = test: Surface plasmon resonance (SPR) with immobilized biotinylated MYCN G4 DNA; format: binding, human
Experimental: Surface plasmon resonance (SPR) analysis. The SPR binding assays were performed with a BIAcore 3000 (GE Healthcare) instrument. A CM5 SPR biochip was loaded into the system and primed with running buffer (10 mM Tris, pH7.0, 100 mM KCl, 0.005% Tween 20, 5% DMSO) with a flow rate of 5 μL/min. Then both Flow Cell (Fc) 1 and 2 were activated by EDC/NHS (0.4 M/0.1 M) aqueous solution for 15 min, followed with an injection of streptavidin (SA) solution (0.2 mg/mL in 10 mM sodium acetate buffer, pH4.5) for 30 minutes. After the immobilization amount of SA reached 8,000-10,000 RU, the surface was deactivated by flowing 1 M Ethanolamine aqueous solution (pH 8.5) for 10 min and regenerated with 10 mM NaOH for 2 min to remove the unbound SA. In the meantime, biotinylated MYCN G4 DNA was prepared at 5 μM in the annealing buffer and heated up to 95° C. for 5 min and slowly cooled down. After annealing, a total of 150 μL solution was injected in the Fc 2 of SPR system for 30 min to immobilize DNA onto the chip surface. The small molecule solutions were tested once the baseline was stable.
To detect the binding signal as well as the binding affinity, a higher flowing rate (25 μL/min) was used in both Fc 1 (reference) and Fc 2 (DNA). Each of the compound solution was prepared at 20× designed the concentrations in DMSO, and then diluted into non-DMSO running buffer, resulting in a final concentration of 5% DMSO. Then, a total of 50 μL compound solution was injected in Fc 1-2 flow path for 120 s for association, followed with 200 s running of buffer for dissociation. An injection of 50 μL regeneration buffer (1 M KCl) could be performed between two samples if necessary. The final binding curve was obtained by reference subtraction. To determine the binding affinity (KD), a series of diluted compound solutions were injected and KD was calculated by BIAevaluation 4.0 software (GE Healthcare) using Langmuir 1:1 binding model.
In this example, SPR binding assays were performed to analyze binding activity of representative bivalent compounds of the present disclosure. The compounds of this example included a non-canonical binder component and a G4 stacker component. A BIAcore 3000 (GE Healthcare) instrument was used. A CM5 SPR biochip was used and primed with running buffer (10 mM Tris, pH7.0, 100 mM KCl, 0.005% Tween 20, 5% DMSO). To immobilize the compounds onto the chip surface, the flow rate was set as 5 μL/min. Then the carboxylated dextran on the chip surface was activated by EDC/NHS (0.4 M/0.1 M) aqueous solution for 15 min, followed with an injection of streptavidin (SA) solution (0.2 mg/mL in 10 mM sodium acetate buffer, pH 4.5) for 30 minutes. After the immobilization amount of SA, the surface was quenched by injecting 1 M ethanolamine (EA) aqueous solution (pH 8.5) for 10 min and regenerated with 10 mM NaOH for 2 min to remove the physical adsorption. Furthermore, biotinylated MYCN G4 DNA was prepared at 5 μM in the annealing buffer and heated up to 95° C. for 5 min followed with slowly cooling down to room temperature within 1 h. After annealing, a total of 150 μL solution was injected in the Fc 2 of SPR system for 30 min to immobilize DNA onto the chip surface. The compound solutions were then tested once the baseline was stable.
To detect the binding signal as well as the binding affinity, a higher flowing rate (25 μL/min) was used in both Fc 1 (blank) and Fc 2 (target). Each of the compound solutions was prepared at 20× designed the concentrations in DMSO, and then diluted into non-DMSO running buffer, resulting in a final concentration of 5% DMSO. Then, a total of 50 μL compound solution was injected in Fc 1-2 flow path for 120 s for association, followed with 200 s running of buffer for dissociation. An injection of 50 μL regeneration buffer (1 M KCl) could be performed between two samples if necessary. The final binding curve was obtained by referencing the blank channel (Fc 1). […]

[4] = target: MYCN G4 DNA (2-AP at A11); test: 2-Aminopurine (2-AP) fluorescence titration, A11-labeled MYCN G4; format: binding, human; conditions: 2-AP at A11 of MYCN G4
Experimental: 2-Aminopurine (2-AP) fluorescence titration. Fluorescence titrations based on 2-aminopurine labeling were performed using the protocol reported previously. Briefly, MYCN G4 oligonucleotide with a 2-AP substitution at either A11 or A18 position was annealed by heating the sample to 95° C. for 5 min and cooling down to RT slowly. The oligonucleotide with folded structure was diluted to 10 μM in Tris buffer (10 mM Tris, pH7.0, 100 mM KCl, 0.005% Tween 20) and prepared in a black 96-well plate (Costar) in triplicate as designed. Small molecules were diluted in DMSO to obtain a series of solutions with concentrations ranging from 0.1 to 5 mM, and then diluted by 20 times added into the plate (5% DMSO final concentration). The final concentration of 2-AP DNA was 1 μM in the well plate. To obtain the background fluorescence, small molecule solutions without DNA were also prepared in the same plate. After incubation for 30 min at RT, the plate was briefly centrifuged and scanned in Synergy Mx microplate reader (BioTek) with Ex 310 nm/Em 365 nm. Fluorescence signals were calculated by averaging the intensities in triplicate wells after subtracting the references. Finally, the binding signals were normalized and the KD value was determined by fitting the curve using a nonlinear sigmoidal dose-response model with a variable slope in GraphPad Prism 8.3.1 software.

[5] = system: MYCN G4 DNA (hairpin minor groove); test: Fluorescence displacement assay with Hoechst 33258; format: binding, human; conditions: competitor added at 5 μM or 50 μM during DNA titration
Experimental: Fluorescence displacement assay. Fluorescence displacement assays were carried out by using two classical minor groove binders (Hoechst 33258 and netropsin). Hoechst 33258, as a fluorophore, was prepared at 5 μM concentration in the buffer (10 mM Tris, pH7.0, 100 mM KCl), and then titrated with different concentrations of unlabeled MYCN G4 oligonucleotides. For displacement, either compound MY-1 or netropsin was added into the solution resulting in a final concentration of 5 μM or 50 μM. Fluorescence signals were obtained with an excitation wavelength of 352 nm and an emission wavelength of 500 nm.

dsDNA = test: SPR binding to dsDNA; conditions: up to 5 μM compound injection
MYCN hairpin-G4 DNA = test: FIA using compound fluorescence (Ex 340/Em 500 nm), titration with unlabeled MYCN G4 DNA; format: binding, human; conditions: 100 nM compound titrated with folded unlabeled MYCN G4
Experimental: In this study, FIA was used for validating the bindings between certain bivalent and MYCN G4 oligos. To measure the binding affinity, a solution of each compound was prepared in triplicate in a 96 well-plate (Costar, black side clear bottom), resulting in a final concentration of 100 nM (5% final DMSO in the working solution). Unlabeled MYCN G4 DNA was folded based on the above-mentioned annealing method, then added into the well plate resulting in different concentrations by a seral dilution. The plate was incubated at room temperature for 30 min, followed by centrifuging at 500 rpm for 2 minutes. The fluorescence intensity was then quantitatively recorded by a Synergy Mx microplate reader (BioTek) at Ex 340 nm/Em 500 nm. The fluorescence intensities were then normalized, and the binding affinity was calculated by fitting the curve using one-site total model in GraphPad Prism 8.3.1 software.

SMILES: CN1C(=Cc2cc[n+](C)c3ccccc23)Sc2ccccc21 [TO]
binding pattern in G4 microarray [1]: binding to most of the oligos except for dsDNA/ssDNA | binding to the 620 G4 and non-G4 controls ([2]; 340 G4s and 280 non-G4s): binding to both G4s and non-G4s | Gini coefficient ([2]; based on SNRs in the microarray): 0.236 | mean SNR value ([2]; whole microarray): 12

SMILES: Cn1cc(NC(=O)c2cc(NC(=O)CN=C(N)N)cn2C)cc1C(=O)NCCC(=N)N [Netropsin, reference compound]
displacement of Hoechst 33258 (decrease in fluorescence intensity) [5]: significant displacement

SMILES: COc1ccc(-c2noc(-c3ccc(NCCNc4c5ccc(Cl)cc5nc5ccc(OC)cc45)nn3)n2)cc1 [B32, N1-(6-chloro-2-methoxyacridin-9-yl)-N2-(6-(3-(4-methoxyphenyl)-1,2,4-oxadiazol-5-yl)pyridazin-3-yl)ethane-1,2-diamine]
Kd (MYCN G4 DNA; MYCN hairpin G4, SPR titration, read-out: KD by SPR): 303 ± 32 nM | binding to dsDNA on SPR (dsDNA): bound to dsDNA at low micromolar level | Kd (MYCN hairpin-G4 DNA): 311 ± 52 nM

Other lines, results leading:

solubility / aggregation [3]: had solubility in suitable buffers
SMILES: COc1ccc(-c2noc(-c3ccc(NCCC4=CCCCC4)nn3)n2)cc1 [MY-4]

Kd (MYCN G4 DNA; MYCN G4, Langmuir 1:1 model, read-out: SPR KD): 2600 ± 1900 nM | A11 2AP KD [4]: sub-micromolar binders | Kd [4]: 200 ± 30 nM | solubility / aggregation [3]: aggregation potential/poor solubility
SMILES: COc1ccc(-c2noc(-c3ccc(NCCCN4CCC(N5CCCCC5)CC4)nn3)n2)cc1 [MY-2]

solubility / aggregation [3]: had solubility in suitable buffers
SMILES: COc1ccc(-c2noc(-c3ccc(NCCc4ccccc4)nn3)n2)cc1 [MY-9]
